Measurements published in patent US8772495B2, “5-lipoxygenase-activating protein inhibitor” (Panmira Pharmaceuticals, LLC, priority 2008, dated 2014).
“And” between values parts separate entries of the source, which are not always exact repeats. Equal values may be shown once. Read-outs that look alike come from different tables or passages of the source.

Key:
[1] = Thermodynamic aqueous solubility by HPLC; assay type: physicochemical; details: water
Protocol: The suspension was equilibrated at 25° C. for 24 hours then the pH was measured. The suspension was then filtered through a glass fibre C filter into a 96 well plate. […] Quantitation was by HPLC with reference to a standard solution of approximately 0.1 mg.ml^−1 in DMSO. Different volumes of the standard, diluted and undiluted sample solutions were injected.
Analysis was performed on an Agilent HP1100 series system equipped with a diode array detector and using ChemStation software vB.02.01-SR1.

LTB4 in Rat Whole Blood = test: Rat whole blood LTB4 inhibition assay; assay type: cell-based; details: individual tests 1-5
CYP3A4 [2] = target: T1, CYP3A4 (Homo sapiens (Human), UniProt P08684); test: Extracellular cytochrome P450 inhibition (microsomes); assay type: in vitro ADME; details: concentrations up to and exceeding 40 μM
T1 sequence (P08684 whole entry, looked up): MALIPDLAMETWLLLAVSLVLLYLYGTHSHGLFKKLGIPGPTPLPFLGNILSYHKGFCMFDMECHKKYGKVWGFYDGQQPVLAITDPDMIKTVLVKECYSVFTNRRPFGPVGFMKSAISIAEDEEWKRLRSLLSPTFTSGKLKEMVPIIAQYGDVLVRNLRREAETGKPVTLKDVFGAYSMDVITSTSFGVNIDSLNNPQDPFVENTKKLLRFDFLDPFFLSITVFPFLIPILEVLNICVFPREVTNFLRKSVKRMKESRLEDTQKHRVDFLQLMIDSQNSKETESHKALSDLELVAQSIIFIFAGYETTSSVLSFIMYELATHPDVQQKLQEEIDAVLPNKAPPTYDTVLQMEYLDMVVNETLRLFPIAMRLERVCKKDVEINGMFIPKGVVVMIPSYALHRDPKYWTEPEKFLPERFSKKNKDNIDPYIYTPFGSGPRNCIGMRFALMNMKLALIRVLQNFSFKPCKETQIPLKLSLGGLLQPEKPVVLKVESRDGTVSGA

CYP2C9 = CYP2C9 (Homo sapiens (Human), UniProt P11712); test: as above; assay type: in vitro ADME; details: concentrations up to and exceeding 40 μM
Chain of CYP2C9 (P11712 whole entry, looked up): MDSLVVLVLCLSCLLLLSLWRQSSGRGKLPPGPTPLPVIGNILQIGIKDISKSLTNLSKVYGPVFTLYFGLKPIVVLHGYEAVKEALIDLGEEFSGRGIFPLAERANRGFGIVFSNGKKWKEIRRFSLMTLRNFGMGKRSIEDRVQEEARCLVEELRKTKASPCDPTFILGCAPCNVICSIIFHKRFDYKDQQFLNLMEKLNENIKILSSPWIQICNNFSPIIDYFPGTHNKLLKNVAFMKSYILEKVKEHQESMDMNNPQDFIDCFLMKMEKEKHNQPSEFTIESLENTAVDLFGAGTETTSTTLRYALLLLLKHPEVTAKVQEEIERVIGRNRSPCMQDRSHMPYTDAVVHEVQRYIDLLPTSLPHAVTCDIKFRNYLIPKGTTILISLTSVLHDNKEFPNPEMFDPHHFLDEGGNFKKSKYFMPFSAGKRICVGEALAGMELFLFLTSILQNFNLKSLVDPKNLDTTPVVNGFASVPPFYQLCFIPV

CYP2C19 = CYP2C19 (Homo sapiens (Human), UniProt P33261); test: as above; assay type: in vitro ADME; details: concentrations up to and exceeding 40 μM
Chain of CYP2C19 (P33261 whole entry): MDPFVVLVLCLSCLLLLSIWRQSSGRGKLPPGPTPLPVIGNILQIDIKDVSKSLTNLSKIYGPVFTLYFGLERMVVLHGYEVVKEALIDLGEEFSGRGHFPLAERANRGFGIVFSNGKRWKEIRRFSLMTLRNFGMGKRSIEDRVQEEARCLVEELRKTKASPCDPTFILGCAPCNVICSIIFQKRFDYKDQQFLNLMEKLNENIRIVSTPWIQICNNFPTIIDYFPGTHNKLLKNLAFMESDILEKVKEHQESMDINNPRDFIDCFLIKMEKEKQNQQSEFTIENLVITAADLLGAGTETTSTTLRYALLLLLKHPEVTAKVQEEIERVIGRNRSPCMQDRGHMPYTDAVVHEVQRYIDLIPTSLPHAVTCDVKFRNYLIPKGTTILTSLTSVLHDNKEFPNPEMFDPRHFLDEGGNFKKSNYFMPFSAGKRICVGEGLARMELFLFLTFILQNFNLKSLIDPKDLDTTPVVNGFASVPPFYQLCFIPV
Text: Final solvent concentrations were 1% (v/v) or less.

CYP2D6 = CYP2D6 (Homo sapiens (Human), UniProt P10635); test: as above; assay type: in vitro ADME; details: concentrations up to and exceeding 40 μM
Chain of CYP2D6 (P10635 whole entry): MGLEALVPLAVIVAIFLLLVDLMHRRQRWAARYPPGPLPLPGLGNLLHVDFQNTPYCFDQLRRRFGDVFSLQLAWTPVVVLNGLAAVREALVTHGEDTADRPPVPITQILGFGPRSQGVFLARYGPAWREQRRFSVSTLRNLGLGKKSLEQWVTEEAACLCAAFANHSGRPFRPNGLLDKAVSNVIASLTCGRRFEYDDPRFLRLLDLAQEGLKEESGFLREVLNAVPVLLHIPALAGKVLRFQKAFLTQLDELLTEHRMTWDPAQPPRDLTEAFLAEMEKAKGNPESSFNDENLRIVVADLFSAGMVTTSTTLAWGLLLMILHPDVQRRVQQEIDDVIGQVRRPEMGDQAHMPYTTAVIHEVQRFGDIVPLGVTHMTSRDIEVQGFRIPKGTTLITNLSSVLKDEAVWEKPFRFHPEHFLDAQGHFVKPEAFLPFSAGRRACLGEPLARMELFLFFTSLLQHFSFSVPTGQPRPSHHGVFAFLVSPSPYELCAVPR

CYP1A2 = CYP1A2 (Homo sapiens (Human), UniProt P05177); test: as above; assay type: in vitro ADME; details: concentrations up to and exceeding 40 μM
Chain of CYP1A2 (P05177 whole entry): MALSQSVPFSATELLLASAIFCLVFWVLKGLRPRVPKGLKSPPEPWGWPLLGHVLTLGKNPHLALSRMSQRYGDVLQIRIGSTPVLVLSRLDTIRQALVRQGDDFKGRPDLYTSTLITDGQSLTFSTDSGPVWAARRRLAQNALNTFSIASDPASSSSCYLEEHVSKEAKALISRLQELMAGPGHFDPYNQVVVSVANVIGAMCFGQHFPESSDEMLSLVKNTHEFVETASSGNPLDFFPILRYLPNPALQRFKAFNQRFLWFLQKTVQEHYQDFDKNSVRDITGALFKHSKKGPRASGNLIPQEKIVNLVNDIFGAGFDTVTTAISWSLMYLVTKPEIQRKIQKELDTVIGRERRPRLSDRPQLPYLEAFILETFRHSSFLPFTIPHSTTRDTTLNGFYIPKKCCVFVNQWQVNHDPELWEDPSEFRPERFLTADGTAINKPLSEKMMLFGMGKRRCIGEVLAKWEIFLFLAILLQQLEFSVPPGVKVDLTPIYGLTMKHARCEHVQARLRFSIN
Protocol: Aliquots of this mixture (89 μL) were delivered to each well of a 96-well polypropylene plate which contained an aliquot of inhibitor (1 μL). Final solvent concentrations were 1% (v/v) or less. Incubations were commenced with the addition of 10 μL β-NADPH (10 mM stock) to a final volume of 100 μL. […] Samples were centrifuged, and supernatant was transferred for LC-MS analysis.

[3] = Liquid formulations for oral solutions/suspensions; assay type: physicochemical
Protocol: Values of pH reported were estimated based on pH indicating strips. […] Accordingly, provided in certain embodiments herein were formulations having a pH above about 9, above about 10 or of about 10. In certain embodiments, the formulation was buffered at a pH of about 10. All formulations prepared were sonicated for about 10 minutes.

[4] = Phase I study: pharmacokinetics after single and multiple oral doses; assay type: in vivo; details: human, plasma
Text: Study Design: Single center, double-blind, randomized, placebo-controlled, single ascending dose followed by multiple ascending dose study.
Sample Size: (1) Single Dose Phase: eight (8) subjects (6 active, 2 placebo) per dose level; up to 5 dose levels are planned (a total of 40 subjects if all 5 dose levels are completed); and (2) Multiple Dose Phase: eight (8) subjects (6 active, 2 placebo) per dose level; up to 4 dose levels are planned (a total of 32 subjects if all 4 dose levels are completed).
Formulations: Compound 2 was supplied as an oral powder for reconstitution. Placebo solution matched. […] The placebo differed only in the absence of the active.
The following dosing cohorts were used:
Routes of Administration: All doses were administered orally with approximately 100 mL of water rinse. Subjects were fasted for at least 8 hours prior to dosing and for 2 hours after dosing. For BID dosing in the Multiple Dose Phase, when applicable, subjects were fasted for at least 2 hours prior to the second daily dose.
Plasma concentrations of Compound 1 were determined using a validated LC/MS method. Whole blood ionophore-stimulated leukotriene LTB4 and urinary LTE4 production were assayed by ELISA and mass spectrometry, respectively.
Analysis of Samples: Concentrations of Compound 1 was determined in plasma samples collected from subjects. Similarly, concentrations of LTB4 in plasma and urinary LTE4 were determined in blood and urine samples collected.

human FLAP = human FLAP (Homo sapiens (Human), UniProt P20292); test: FLAP binding assay (membrane radioligand binding); details: read-out: IC50, inhibition of FLAP radioligand binding; individual tests 1-8
Chain of human FLAP (P20292 whole entry): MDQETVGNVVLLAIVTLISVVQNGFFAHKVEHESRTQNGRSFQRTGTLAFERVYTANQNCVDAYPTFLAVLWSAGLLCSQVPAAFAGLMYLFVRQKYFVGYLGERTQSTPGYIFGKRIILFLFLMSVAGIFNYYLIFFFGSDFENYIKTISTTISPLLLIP

CYP3A4 [5] = target: T1, CYP3A4; test: Cellular cytochrome P450 induction in cryopreserved human hepatocytes; details: tested at 10 μM, midazolam substrate
[6] = oral, 10 mg, multiple dose 10 mg, Day 1
[7] = oral, 10 mg, multiple dose 10 mg, Day 11
[8] = oral, 50 mg, multiple dose 50 mg, Day 1
[9] = oral, 50 mg, multiple dose 50 mg, Day 11
[10] = oral, 150 mg, multiple dose 150 mg, Day 1
[11] = oral, 150 mg, multiple dose 150 mg, Day 11
[12] = oral, 450 mg, multiple dose 450 mg, Day 1
[13] = oral, 450 mg, multiple dose 450 mg, Day 11
[14] = po, 50 mg, single dose 50 mg, oral solution
[15] = po, 150 mg, single dose 150 mg, oral solution
[16] = po, 300 mg, single dose 300 mg, oral solution
[17] = po, 600 mg, single dose 600 mg, oral solution
[18] = po, 1000 mg, single dose 1000 mg, oral solution

- pH of unfiltered saturated solution ([1]; 25° C.): above 9
- solubility at 24 h ([1]; 25 °C, thermodynamic from solid, both batches): > 10000 µg/mL
- IC50 (LTB4 in Rat Whole Blood): 302 nM and 160 nM and 380 nM and 212 nM and 141 nM
- apparent inhibition (CYP3A4 [2]): No apparent inhibition
- apparent inhibition (CYP2C9): No apparent inhibition
- apparent inhibition (CYP2C19): No apparent inhibition
- apparent inhibition (CYP2D6): No apparent inhibition
- apparent inhibition (CYP1A2): No apparent inhibition
- Results (appearance of formulation) ([3]; 0.010 M sodium carbonate buffer, 1% v/v Lutrol and 0.05% splenda, pH 10, ~10 mg/mL): Clear solution
- Results (appearance of formulation) ([3]; 0.010 M sodium carbonate buffer, 2% v/v ethanol and 0.05% splenda, pH 10, 10 mg/mL): Clear solution
- Results (appearance of formulation) ([3]; 0.010 M sodium carbonate buffer, 5% v/v Ethanol and 0.05% splenda, pH 10, ~10 mg/mL): Some undissolved solid
- Results (appearance of formulation) ([3]; 0.010 M sodium carbonate buffer, 5% v/v Simple syrup, pH 10, 10 mg/mL): Some undissolved solid
- Results (appearance of formulation) ([3]; 0.010 M sodium carbonate buffer, pH 10, 10 mg/mL): Clear solution
- Results (appearance of formulation) ([3]; 0.5% Methylcellulose, 3.33 mg/mL): Suspension
- Cmax [4, 6]: 70 ± 10 nM
- Tmax [4, 6]: 4 ± 3.1 h
- AUC(0-t) ([4]; oral, 10 mg, multiple dose 10 mg, Day 1, read-out: AUClast): 1.1 ± 0.2 µM·h
- half-life ([4]; oral, 10 mg, multiple dose 10 mg, Day 1, read-out: t½ (converted)): 1920 ± 1380 min
- Cmax [4, 7]: 130 ± 50 nM
- Tmax [4, 7]: 10 ± 6.9 h
- AUC(0-t) ([4]; oral, 10 mg, multiple dose 10 mg, Day 11, read-out: AUClast): 2.4 ± 1.1 µM·h
- half-life ([4]; oral, 10 mg, multiple dose 10 mg, Day 11, read-out: t½ (converted)): 3000 ± 2460 min
- Cmax [4, 8]: 600 ± 200 nM
- Tmax [4, 8]: 4.2 ± 3 h
- AUC(0-t) ([4]; oral, 50 mg, multiple dose 50 mg, Day 1, read-out: AUClast): 8.3 ± 2.9 µM·h
- half-life ([4]; oral, 50 mg, multiple dose 50 mg, Day 1, read-out: t½ (converted)): 1140 ± 600 min
- Cmax [4, 9]: 900 ± 100 nM
- Tmax [4, 9]: 3.2 ± 2 h
- AUC(0-t) ([4]; oral, 50 mg, multiple dose 50 mg, Day 11, read-out: AUClast): 13.5 ± 3.4 µM·h
- half-life ([4]; oral, 50 mg, multiple dose 50 mg, Day 11, read-out: t½ (converted)): 1500 ± 660 min
- Cmax [4, 10]: 1400 ± 700 nM
- Tmax [4, 10]: 2.3 ± 0.8 h
- AUC(0-t) ([4]; oral, 150 mg, multiple dose 150 mg, Day 1, read-out: AUClast): 16 ± 6.8 µM·h
- half-life ([4]; oral, 150 mg, multiple dose 150 mg, Day 1, read-out: t½ (converted)): 960 ± 462 min
- Cmax [4, 11]: 3000 ± 1200 nM
- Tmax [4, 11]: 2 h
- AUC(0-t) ([4]; oral, 150 mg, multiple dose 150 mg, Day 11, read-out: AUClast): 33 ± 16 µM·h
- half-life ([4]; oral, 150 mg, multiple dose 150 mg, Day 11, read-out: t½ (converted)): 1140 ± 780 min
- Cmax [4, 12]: 7300 ± 6000 nM
- Tmax [4, 12]: 2 h
- AUC(0-t) ([4]; oral, 450 mg, multiple dose 450 mg, Day 1, read-out: AUClast): 57 ± 39 µM·h
- half-life ([4]; oral, 450 mg, multiple dose 450 mg, Day 1, read-out: t½ (converted)): 720 ± 240 min
- Cmax [4, 13]: 9300 ± 5400 nM
- Tmax [4, 13]: 2 h
- AUC(0-t) ([4]; oral, 450 mg, multiple dose 450 mg, Day 11, read-out: AUClast): 76 ± 33 µM·h
- half-life ([4]; oral, 450 mg, multiple dose 450 mg, Day 11, read-out: t½ (converted)): 840 ± 240 min
- Cmax [4, 14]: 570 ± 300 nM
- Tmax [4, 14]: 2.2 ± 0.4 h
- AUC(0-t) ([4]; po, 50 mg, single dose 50 mg, oral solution, read-out: AUC0-24): 6.5 ± 2.2 µM·h
- half-life ([4]; po, 50 mg, single dose 50 mg, oral solution, read-out: t1/2 (converted)): 768 ± 174 min
- Cmax [4, 15]: 2200 ± 500 nM
- Tmax [4, 15]: 2.3 ± 0.5 h
- AUC(0-t) ([4]; po, 150 mg, single dose 150 mg, oral solution, read-out: AUC0-24): 21.7 ± 6.1 µM·h
- half-life ([4]; po, 150 mg, single dose 150 mg, oral solution, read-out: t1/2 (converted)): 666 ± 168 min
- Cmax [4, 16]: 3000 ± 1500 nM
- Tmax [4, 16]: 2.7 ± 1.5 h
- AUC(0-t) ([4]; po, 300 mg, single dose 300 mg, oral solution, read-out: AUC0-24): 23.6 ± 5.9 µM·h
- half-life ([4]; po, 300 mg, single dose 300 mg, oral solution, read-out: t1/2 (converted)): 588 ± 150 min
- Cmax [4, 17]: 11200 ± 7000 nM
- Tmax [4, 17]: 2.3 ± 0.5 h
- AUC(0-t) ([4]; po, 600 mg, single dose 600 mg, oral solution, read-out: AUC0-24): 90 ± 50 µM·h
- half-life ([4]; po, 600 mg, single dose 600 mg, oral solution, read-out: t1/2 (converted)): 846 ± 408 min
- Cmax [4, 18]: 18200 ± 7600 nM
- Tmax [4, 18]: 2 h
- AUC(0-t) ([4]; po, 1000 mg, single dose 1000 mg, oral solution, read-out: AUC0-24): 110 ± 49 µM·h
- half-life ([4]; po, 1000 mg, single dose 1000 mg, oral solution, read-out: t1/2 (converted)): 498 ± 66 min
- IC50 (human FLAP): 2.8 nM and 2.2 nM
- CYP3A4 induction (CYP3A4 [5]): No apparent induction
Structure (SMILES): CCOc1ccc(-c2ccc(Cn3c(CC(C)(C)C(=O)[O-])c(SC(C)(C)C)c4cc(OCc5ccc(C)cn5)ccc43)cc2)cn1.[Na+] [Compound 2, sodium 3-[3-(tert-butylsulfanyl)-1-[4-(6-ethoxy-pyridin-3-yl)benzyl]-5-(5-methyl-pyridin-2-yl-methoxy)-1H-indol-2-yl]-2,2-dimethylpropionate]
